Experimental data reported in ChEMBL document CHEMBL1201862, “PubChem BioAssay data set” (2004).
The source made the active and inactive calls.

How the values were obtained:
[1] = molecular target: Ribosomal protein S6 kinase alpha-3 (Homo sapiens, UniProt P51812); type: functional;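 further: measured within a kinome-wide profiling panel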
[2] = molecular target: Tyrosine-protein kinase JAK2 (Homo sapiens, UniProt O60674); type: functional;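 further: JAK2 tested as one member of a kinase panel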
[3] = molecular target: Ribosomal protein S6 kinase beta-1 (Homo sapiens, UniProt P23443); type: functional;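 further: measured as one member of a kinome-wide profiling panel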
[4] = molecular target: Death-associated protein kinase 3 (Homo sapiens, UniProt O43293); type: functional;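 further: measured as one member of a kinome-wide profiling panel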
[5] = molecular target: Tyrosine-protein kinase JAK3 (Homo sapiens, UniProt P52333); type: functional
[6] = molecular target: Insulin receptor (Homo sapiens, UniProt P06213); type: functional;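 further: insulin receptor kinase tested as one member of a kinome-wide kinase panel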
[7] = molecular target: Protein-tyrosine kinase 2-beta (Homo sapiens, UniProt Q14289); type: functional
Protein-tyrosine kinase 2-beta, sequence (Q14289 whole entry): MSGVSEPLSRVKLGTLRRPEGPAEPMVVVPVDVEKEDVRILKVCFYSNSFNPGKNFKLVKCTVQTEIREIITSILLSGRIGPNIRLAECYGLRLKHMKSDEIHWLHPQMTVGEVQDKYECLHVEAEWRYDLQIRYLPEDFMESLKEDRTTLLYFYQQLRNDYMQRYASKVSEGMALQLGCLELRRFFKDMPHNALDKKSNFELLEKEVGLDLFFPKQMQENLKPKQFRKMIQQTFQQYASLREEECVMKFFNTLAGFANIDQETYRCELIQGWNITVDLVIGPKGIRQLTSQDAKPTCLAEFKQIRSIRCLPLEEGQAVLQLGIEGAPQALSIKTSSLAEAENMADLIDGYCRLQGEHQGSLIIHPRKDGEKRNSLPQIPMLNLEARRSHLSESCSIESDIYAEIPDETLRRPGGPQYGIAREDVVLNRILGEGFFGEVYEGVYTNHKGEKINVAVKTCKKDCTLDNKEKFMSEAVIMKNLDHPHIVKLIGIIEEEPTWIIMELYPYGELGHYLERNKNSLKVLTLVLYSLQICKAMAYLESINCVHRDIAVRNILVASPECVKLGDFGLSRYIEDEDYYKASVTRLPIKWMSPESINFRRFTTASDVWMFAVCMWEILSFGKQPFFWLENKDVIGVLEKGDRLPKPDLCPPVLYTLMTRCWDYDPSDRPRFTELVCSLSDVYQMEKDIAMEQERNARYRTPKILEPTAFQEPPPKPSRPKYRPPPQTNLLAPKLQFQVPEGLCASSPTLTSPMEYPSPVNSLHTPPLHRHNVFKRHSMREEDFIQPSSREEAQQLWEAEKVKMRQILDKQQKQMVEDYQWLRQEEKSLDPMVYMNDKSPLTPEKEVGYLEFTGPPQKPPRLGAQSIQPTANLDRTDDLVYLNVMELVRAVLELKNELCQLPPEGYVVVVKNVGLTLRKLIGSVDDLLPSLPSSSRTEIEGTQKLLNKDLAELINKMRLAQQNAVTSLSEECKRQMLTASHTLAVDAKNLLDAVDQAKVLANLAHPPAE

[8] = molecular target: Non-receptor tyrosine-protein kinase TYK2 (Homo sapiens, UniProt P29597); type: functional
[9] = molecular target: Protein kinase C gamma type (Homo sapiens, UniProt P05129); type: functional
[10] = molecular target: Hepatocyte growth factor receptor (Homo sapiens, UniProt P08581); type: functional;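 further: kinase panel profiling across the kinome, with MET as the panel member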
[11] = molecular target: MAP kinase-activated protein kinase 3 (Homo sapiens, UniProt Q16644); type: functional;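 further: value comes from a kinome-wide profiling panel in which MAPKAPK3 is one of the panel members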
[12] = molecular target: Cyclin-dependent kinase 5 (Homo sapiens, UniProt Q00535); type: functional;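 further: CDK5 measured as one member of a kinase profiling panel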
Cyclin-dependent kinase 5, sequence (Q00535 whole entry): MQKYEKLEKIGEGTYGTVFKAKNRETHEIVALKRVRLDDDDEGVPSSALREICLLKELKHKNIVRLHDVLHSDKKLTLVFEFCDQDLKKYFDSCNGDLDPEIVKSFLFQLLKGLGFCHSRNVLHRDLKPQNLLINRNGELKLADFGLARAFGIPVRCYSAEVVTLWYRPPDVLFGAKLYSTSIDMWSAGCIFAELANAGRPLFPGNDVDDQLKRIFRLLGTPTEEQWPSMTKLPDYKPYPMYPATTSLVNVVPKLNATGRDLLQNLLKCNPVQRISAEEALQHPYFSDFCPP

[13] = molecular target: Mitogen-activated protein kinase 1 (Homo sapiens, UniProt P28482); type: functional
Mitogen-activated protein kinase 1, sequence (P28482 whole entry): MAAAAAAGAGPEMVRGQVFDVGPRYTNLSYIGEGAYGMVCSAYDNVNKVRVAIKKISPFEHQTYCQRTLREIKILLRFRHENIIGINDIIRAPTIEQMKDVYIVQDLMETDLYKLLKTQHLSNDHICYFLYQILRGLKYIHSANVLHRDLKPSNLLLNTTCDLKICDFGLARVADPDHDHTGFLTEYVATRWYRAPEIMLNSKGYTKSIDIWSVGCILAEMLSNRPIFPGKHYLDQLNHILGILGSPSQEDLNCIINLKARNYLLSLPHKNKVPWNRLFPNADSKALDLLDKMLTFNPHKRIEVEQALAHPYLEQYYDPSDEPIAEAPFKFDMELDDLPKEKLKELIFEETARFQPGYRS

[14] = molecular target: Cyclin-dependent kinase 19 (Homo sapiens, UniProt Q9BWU1); experiment: Navigating the Kinome. Panel member name: CDC2L6; type: functional
[15] = molecular target: Rho-associated protein kinase 1 (Homo sapiens, UniProt Q13464); type: functional;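 further: measured within a broad kinome-wide panel profiling many kinases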
[16] = molecular target: Tyrosine-protein kinase Fyn (Homo sapiens, UniProt P06241); type: functional
Tyrosine-protein kinase Fyn, sequence (P06241 whole entry): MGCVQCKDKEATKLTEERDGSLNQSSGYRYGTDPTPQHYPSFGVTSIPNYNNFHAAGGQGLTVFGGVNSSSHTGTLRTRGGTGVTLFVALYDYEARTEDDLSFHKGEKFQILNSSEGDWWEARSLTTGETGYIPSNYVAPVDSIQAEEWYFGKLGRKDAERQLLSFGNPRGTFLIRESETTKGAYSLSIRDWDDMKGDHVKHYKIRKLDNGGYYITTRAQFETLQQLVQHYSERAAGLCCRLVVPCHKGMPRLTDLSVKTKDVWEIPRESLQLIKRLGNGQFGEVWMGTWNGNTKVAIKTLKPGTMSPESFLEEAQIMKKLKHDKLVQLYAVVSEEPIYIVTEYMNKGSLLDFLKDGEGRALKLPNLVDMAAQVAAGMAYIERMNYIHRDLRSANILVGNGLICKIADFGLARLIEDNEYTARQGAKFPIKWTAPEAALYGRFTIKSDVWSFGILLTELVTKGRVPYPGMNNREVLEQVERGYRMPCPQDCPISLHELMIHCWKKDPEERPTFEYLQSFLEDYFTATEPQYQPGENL

[17] = molecular target: Homeodomain-interacting protein kinase 4 (Homo sapiens, UniProt Q8NE63); type: functional
Homeodomain-interacting protein kinase 4, sequence (Q8NE63 whole entry): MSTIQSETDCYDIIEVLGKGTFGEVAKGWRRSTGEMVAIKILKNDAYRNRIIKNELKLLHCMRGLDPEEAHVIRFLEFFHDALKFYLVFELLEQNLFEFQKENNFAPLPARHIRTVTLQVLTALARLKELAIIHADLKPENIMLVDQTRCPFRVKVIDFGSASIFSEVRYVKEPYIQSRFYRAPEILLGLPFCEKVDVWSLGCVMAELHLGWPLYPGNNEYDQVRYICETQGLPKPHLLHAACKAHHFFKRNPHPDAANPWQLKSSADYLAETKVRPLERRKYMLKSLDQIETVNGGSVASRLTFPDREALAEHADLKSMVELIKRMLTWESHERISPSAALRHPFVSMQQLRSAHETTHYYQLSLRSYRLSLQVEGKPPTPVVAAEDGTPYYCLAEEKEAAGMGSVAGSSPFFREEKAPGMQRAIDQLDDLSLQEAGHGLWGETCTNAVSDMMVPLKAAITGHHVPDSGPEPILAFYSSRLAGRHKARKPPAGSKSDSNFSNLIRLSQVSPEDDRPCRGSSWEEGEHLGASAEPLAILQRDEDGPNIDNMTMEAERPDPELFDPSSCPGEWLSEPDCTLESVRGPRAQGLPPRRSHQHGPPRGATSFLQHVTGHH

[18] = molecular target: Serine/threonine-protein kinase DCLK1 (Homo sapiens, UniProt O15075); type: functional;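 further: affinity for DCLK1 (listed as DCAMKL1) measured as one member of a kinome-wide kinase profiling panel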
[19] = molecular target: STE20-like serine/threonine-protein kinase (Homo sapiens, UniProt Q9H2G2); type: functional
STE20-like serine/threonine-protein kinase, sequence (Q9H2G2 whole entry): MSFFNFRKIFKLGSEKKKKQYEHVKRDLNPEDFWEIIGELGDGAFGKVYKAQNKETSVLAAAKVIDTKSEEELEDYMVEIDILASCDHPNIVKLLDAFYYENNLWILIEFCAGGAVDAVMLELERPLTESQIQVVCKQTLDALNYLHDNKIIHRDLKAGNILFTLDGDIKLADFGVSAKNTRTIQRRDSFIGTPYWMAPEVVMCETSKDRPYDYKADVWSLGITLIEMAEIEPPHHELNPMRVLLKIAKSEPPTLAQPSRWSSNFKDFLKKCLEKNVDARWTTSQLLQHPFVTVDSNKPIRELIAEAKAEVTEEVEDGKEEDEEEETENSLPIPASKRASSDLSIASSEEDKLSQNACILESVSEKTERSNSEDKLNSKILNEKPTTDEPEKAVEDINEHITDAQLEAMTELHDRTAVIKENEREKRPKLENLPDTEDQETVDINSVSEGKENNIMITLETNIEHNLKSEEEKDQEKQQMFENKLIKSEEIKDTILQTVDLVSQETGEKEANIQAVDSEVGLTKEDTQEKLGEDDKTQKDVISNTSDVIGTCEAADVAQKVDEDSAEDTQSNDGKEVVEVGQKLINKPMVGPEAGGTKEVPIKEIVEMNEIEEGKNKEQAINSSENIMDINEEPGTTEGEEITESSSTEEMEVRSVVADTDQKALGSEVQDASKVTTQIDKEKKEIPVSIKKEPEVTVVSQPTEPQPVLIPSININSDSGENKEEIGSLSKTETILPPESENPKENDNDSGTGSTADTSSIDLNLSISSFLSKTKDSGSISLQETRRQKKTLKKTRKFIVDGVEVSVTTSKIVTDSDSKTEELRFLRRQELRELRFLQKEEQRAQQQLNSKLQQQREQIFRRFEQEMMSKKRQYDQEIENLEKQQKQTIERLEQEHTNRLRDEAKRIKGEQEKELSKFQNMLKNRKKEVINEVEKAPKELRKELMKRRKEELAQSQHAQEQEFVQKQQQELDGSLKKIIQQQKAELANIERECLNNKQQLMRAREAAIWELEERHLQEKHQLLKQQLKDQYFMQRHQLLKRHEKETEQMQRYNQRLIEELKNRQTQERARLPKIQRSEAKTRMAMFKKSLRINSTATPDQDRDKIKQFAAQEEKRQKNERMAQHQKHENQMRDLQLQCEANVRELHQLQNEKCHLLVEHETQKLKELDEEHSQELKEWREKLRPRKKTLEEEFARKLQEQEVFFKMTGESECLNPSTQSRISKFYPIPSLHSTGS

[20] = molecular target: Mitogen-activated protein kinase 12 (Homo sapiens, UniProt P53778); type: functional;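 further: measured as one member of a kinome-wide kinase profiling panel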
Mitogen-activated protein kinase 12, sequence (P53778 whole entry): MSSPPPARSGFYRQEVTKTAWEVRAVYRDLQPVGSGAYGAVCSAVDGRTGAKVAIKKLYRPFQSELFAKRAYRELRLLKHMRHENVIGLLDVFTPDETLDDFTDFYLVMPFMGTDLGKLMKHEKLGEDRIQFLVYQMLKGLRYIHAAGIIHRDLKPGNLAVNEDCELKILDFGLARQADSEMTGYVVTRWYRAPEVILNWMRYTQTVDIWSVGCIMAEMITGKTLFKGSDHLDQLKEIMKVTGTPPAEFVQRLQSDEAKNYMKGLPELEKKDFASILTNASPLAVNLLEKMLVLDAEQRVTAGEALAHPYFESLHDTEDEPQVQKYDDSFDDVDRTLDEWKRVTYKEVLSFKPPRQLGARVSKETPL

[21] = molecular target: Serine/threonine-protein kinase MRCK alpha (Homo sapiens, UniProt Q5VT25); type: functional
[22] = molecular target: Dual specificity tyrosine-phosphorylation-regulated kinase 1A (Homo sapiens, UniProt Q13627); type: functional;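 further: measured against DYRK1A as one member of a broad kinome profiling panel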
[23] = molecular target: Serine/threonine-protein kinase 3 (Homo sapiens, UniProt Q13188); type: functional;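 further: measured as one member of a kinome-wide kinase panel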
[24] = molecular target: Phospholipase A2 (Homo sapiens, UniProt P04054); type: functional;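 further: confirmatory dose-response counterscreen on phospholipase A2, testing hits that came from an ultra-high-throughput screen for ATG4B inhibitors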
Phospholipase A2, sequence (P04054 whole entry): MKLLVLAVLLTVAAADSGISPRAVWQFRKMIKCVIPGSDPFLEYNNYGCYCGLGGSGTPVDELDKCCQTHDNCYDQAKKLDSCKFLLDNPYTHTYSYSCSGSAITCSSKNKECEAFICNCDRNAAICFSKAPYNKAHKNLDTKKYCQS

[25] = molecular target: 5-hydroxytryptamine receptor 5A (Homo sapiens, UniProt P47898); experiment: Counterscreen for agonists of OPRM1-OPRD1 heterodimerization: luminescence-based cell-based high throughput dose response assay to identify agonists of 5-hydroxytryptamine (serotonin) 5A receptor (HTR5A). [Related pubchem assays (depositor defined):AID504326, AID504355, AID504692, AID504904, AID504905]; type: functional
[26] = molecular target: Caspase-9 (Homo sapiens, UniProt P55211); experiment: caspase-9 enzyme inhibition, dose response, selectivity assay for caspase-6 inhibitor project, biochemical, fluorescence, plate reader, cherry-picked samples (AID 743293)
Caspase-9, sequence (P55211 1-315 limits assumed): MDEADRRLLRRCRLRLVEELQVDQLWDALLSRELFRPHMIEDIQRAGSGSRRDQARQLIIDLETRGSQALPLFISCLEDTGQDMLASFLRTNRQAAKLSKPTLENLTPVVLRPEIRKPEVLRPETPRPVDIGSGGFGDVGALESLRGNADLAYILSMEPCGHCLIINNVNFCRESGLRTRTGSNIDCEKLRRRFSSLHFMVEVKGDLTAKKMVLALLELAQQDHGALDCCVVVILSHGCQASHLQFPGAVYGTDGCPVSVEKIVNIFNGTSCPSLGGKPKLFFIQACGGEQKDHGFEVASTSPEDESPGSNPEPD
Caspase-9, sequence (P55211 331-416 limits assumed): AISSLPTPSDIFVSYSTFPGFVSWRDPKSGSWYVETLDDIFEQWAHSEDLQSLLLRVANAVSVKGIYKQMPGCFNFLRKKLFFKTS

[27] = LGR2 antagonists, dose response, cell-based, HEK293, CRE-luciferase reporter, cherry pick, set 2 (AID 743343); type: functional;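 further: transfected cells were stimulated with diluted bursicon conditioned medium after compound addition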
[28] = HEK293 cell cytotoxicity, dose response, cytotoxicity control, plate reader, cherry-picked samples (AID 743446); type: functional, cell-based
[29] = molecular target: T1, Apoptotic protease-activating factor 1 (Homo sapiens, UniProt O14727); type: functional
T1 sequence (O14727 whole entry): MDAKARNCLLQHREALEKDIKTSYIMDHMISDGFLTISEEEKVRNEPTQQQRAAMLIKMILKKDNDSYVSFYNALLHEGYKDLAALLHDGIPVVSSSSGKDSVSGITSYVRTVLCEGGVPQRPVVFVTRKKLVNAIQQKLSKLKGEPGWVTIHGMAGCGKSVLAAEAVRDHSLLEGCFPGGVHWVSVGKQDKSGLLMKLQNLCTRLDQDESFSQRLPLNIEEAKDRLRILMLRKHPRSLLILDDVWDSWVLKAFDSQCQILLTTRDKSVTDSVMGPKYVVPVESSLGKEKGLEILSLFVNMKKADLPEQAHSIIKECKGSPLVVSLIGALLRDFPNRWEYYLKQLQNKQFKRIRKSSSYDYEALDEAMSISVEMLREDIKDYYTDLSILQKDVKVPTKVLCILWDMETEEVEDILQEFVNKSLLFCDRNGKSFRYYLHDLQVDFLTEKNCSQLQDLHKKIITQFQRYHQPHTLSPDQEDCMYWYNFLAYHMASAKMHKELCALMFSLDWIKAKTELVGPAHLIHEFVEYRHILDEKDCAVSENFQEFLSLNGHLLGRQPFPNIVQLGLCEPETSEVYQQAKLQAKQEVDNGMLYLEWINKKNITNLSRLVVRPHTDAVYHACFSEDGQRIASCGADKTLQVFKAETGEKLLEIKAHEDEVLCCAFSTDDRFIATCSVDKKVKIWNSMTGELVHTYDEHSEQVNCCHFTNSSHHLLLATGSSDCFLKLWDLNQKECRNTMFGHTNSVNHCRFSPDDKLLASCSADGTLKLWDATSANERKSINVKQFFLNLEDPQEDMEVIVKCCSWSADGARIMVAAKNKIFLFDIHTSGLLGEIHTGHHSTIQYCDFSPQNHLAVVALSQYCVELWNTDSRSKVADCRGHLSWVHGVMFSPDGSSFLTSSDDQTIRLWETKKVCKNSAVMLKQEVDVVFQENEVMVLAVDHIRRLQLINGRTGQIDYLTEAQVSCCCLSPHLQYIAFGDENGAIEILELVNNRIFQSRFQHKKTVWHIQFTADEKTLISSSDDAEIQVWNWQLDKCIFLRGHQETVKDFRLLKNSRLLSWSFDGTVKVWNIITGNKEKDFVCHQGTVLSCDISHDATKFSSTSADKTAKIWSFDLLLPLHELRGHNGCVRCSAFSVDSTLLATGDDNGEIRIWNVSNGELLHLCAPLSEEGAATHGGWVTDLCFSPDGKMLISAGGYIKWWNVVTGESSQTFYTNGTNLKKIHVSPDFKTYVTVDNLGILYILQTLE

In the case of `COc1cc2ncn(-c3cc(OCc4ccccc4C(F)(F)F)c(C(N)=O)s3)c2cc1OC` [GW843682X], the Ki [1] is reported as 7.94 µM (active), the Ki [2] is reported as 1.26 µM (active) and the Ki [3] is reported as > 6.31 µM (inactive). The Ki [4] was > 1.26 µM (inactive), the Ki [5] was 0.2 µM (active) and the Ki [6] was > 5.01 µM (inactive). For the same compound, the Ki [7] was 0.158 µM (active), the Ki [8] was > 2 µM (inactive) and the Ki [9] was > 7.94 µM (inactive). For the same compound, the Ki [10] was > 3.16 µM (inactive), the Ki [11] was > 10 µM (inactive) and the Ki [12] was > 10 µM (inactive). For the same compound, the Ki [13] was > 7.94 µM (inactive), the Ki [14] was > 100 µM (inactive) and the Ki [15] was > 10 µM (inactive). For the same compound, the Ki [16] was > 0.794 µM (inactive), the Ki [17] was > 7.94 µM (inactive) and the Ki [18] was > 10 µM (inactive). The Ki [19] was 0.0126 µM (active), the Ki [20] was > 6.31 µM (inactive) and the Ki [21] was > 10 µM (inactive). The Ki [22] was 5.01 µM (active) and the Ki [23] was 0.2 µM (active).
In the case of `CCCc1nc2c(=O)n(C)c(=O)nc-2n(C)n1`, the IC50 [24] is reported as > 80 µM (inactive), the EC50 [25] is reported as > 92.5 µM (inactive) and the AC50 [26] is reported as 0.214 µM (active). The AC50 [27] was 5.47 µM (active) and the AC50 [28] was 27.1 µM (active).
With `CC(=O)c1ccc(NC2=C(N3CCOCC3)C(=O)c3ccccc3C2=O)cc1` the IC50 [29] was 28.7 µM (active).
